The values that follow are results of earlier work, collected in patent US20110082127A1, “NEW INJECTABLE FORMULATIONS CONTAINING PROGESTERONE” (priority 2004, published 2011).

The conditions of the series: stated by the known art.

For `OC[C@H]1O[C@@H]2O[C@H]3[C@H](O)[C@@H](O)[C@@H](O[C@H]4[C@H](O)[C@@H](O)[C@@H](O[C@H]5[C@H](O)[C@@H](O)[C@@H](O[C@H]6[C@H](O)[C@@H](O)[C@@H](O[C@H]7[C@H](O)[C@@H](O)[C@@H](O[C@H]8[C@H](O)[C@@H](O)[C@@H](O[C@H]1[C@H](O)[C@H]2O)O[C@@H]8CO)O[C@@H]7CO)O[C@@H]6CO)O[C@@H]5CO)O[C@@H]4CO)O[C@@H]3CO` [unsubstituted β-cyclodextrin, β-cyclodextrin], the water solubility is 1.8 g/100 ml.
